Earlier results as cited in US12144813B2, “PLK1 inhibitor in combination with anti-angiogenics for treating metastatic cancer” (CARDIFF ONCOLOGY, INC., priority 2022, dated 2024).
Like-named read-outs stand apart in the source and are kept apart here.

Experiments:
[1] = test system: patients with AML who were treatment naïve yet unsuitable for induction therapy; conditions: administered intravenously in combination with LDAC; phase II
AML = conditions: combination with LDAC; phase III
[2] = test system: 2nd line patients, bev naïve or prior bev in 1st line; conditions: prior trials
PLK1 = PLK1 (Homo sapiens, UniProt P53350); conditions: panel of 296 kinases, including other PLK members
[3] = test system: cell lines, both from solid as well as hematologic tumors; conditions: large number of cell lines, solid and hematologic tumors
[4] = test system: disseminated model of AML
xenograft tumor = conditions: well tolerated doses in mice after oral administration
[5] = test system: HT29 human colon adenocarcinoma xenografts; conditions: combination with irinotecan
[6] = test system: patients with advanced/metastatic solid tumors

Sequence of PLK1 (P53350 whole entry): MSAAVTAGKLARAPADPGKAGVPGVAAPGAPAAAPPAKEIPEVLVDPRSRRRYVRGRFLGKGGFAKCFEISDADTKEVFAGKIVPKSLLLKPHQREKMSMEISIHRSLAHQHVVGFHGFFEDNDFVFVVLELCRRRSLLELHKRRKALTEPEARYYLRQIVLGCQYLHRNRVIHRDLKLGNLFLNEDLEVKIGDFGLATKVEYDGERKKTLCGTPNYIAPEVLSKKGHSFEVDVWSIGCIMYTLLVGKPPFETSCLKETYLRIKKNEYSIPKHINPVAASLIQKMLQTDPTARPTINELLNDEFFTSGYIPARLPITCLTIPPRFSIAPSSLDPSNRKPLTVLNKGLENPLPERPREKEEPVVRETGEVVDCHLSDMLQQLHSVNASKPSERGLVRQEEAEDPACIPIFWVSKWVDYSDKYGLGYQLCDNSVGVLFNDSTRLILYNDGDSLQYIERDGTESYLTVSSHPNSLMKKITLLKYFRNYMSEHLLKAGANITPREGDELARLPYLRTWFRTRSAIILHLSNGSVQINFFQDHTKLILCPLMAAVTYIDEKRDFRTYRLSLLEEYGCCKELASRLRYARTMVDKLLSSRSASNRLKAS

## CC[C@@H]1C(=O)N(C)c2cnc(Nc3ccc(C(=O)N[C@H]4CC[C@H](N5CCN(CC6CC6)CC5)CC4)cc3OC)nc2N1C(C)C [volasertib (BI6727)]
[1]
  OS compared with LDAC alone: significant increase in OS
AML
  Benefit of the combination: no benefit
  Risk of severe infections: increased risk of severe infections

## Bevacizumab: anti-angiogenics / angiogenesis inhibitor, also referred to herein as bev
[2]; bev naïve patients
  mOS: 13.9 months
  mPFS: 6.9 months
[2]; patients with prior bev
  mOS: 12.5 months
  mPFS: 6.7 months

## CN1CCN(c2ccc(OC(F)(F)F)c(Nc3ncc4c(n3)-c3c(c(C(N)=O)nn3CCO)CC4)c2)CC1 [Onvansertib, 1-(2-hydroxyethyl)-8-{[5-(4-methylpiperazin-1-yl)-2-(trifluoromethoxy)phenyl]amino}-4,5-dihydro-1H-pyrazolo[4,3-h]quinazoline-3-carboxamide]
PLK1
  Specificity for PLK1: high specificity
AML cell lines
  Inhibition of cell proliferation: nanomolar concentrations
[3]
  Potency in proliferation assays: low nanomolar activity
Cancer cell lines
  Cell-cycle effect: mitotic cell-cycle arrest followed by apoptosis
[4]; disseminated model of AML, combination therapy with cytarabine
  Survival of animals: prolonged survival
[4]; disseminated models of AML, with cytarabine
  Effect on cytarabine antitumor activity: significantly increased
Xenograft tumor
  Xenograft tumor growth: inhibits xenograft tumor growth
[5]
  Tumor regression compared to each agent alone: enhanced tumor regression
[6]; phase I, patients with advanced/metastatic solid tumors
  Primary dose-limiting toxicities: neutropenia and thrombocytopenia
[6]; reversible toxicities
  Recovery from hematologic toxicities: ≤ 3 weeks
